Entries after “also recorded” stand apart in the source; their conditions may differ.
Columns and labels:
[1] = in vivo; cited from earlier work
RBP = RBP (Homo sapiens, UniProt P02753); test: Competition binding assay RBP-retinol/HPR by fluorescence quenching
Excerpt: Based upon these findings, we sought to further explore the mechanism(s) of retinol reduction during HPR treatment. A tenable hypothesis is that HPR may displace retinol by competing at the retinol binding site on RBP. […] Therefore, one can measure displacement of retinol from the RBP holoprotein by observing decreases in both protein (340 nm) and retinol (470 nm) fluorescence. We performed a competition binding assay using RBP-retinol/HPR concentrations which were similar to those determined from the 14 day trial at 20 mg/kg HPR described above. […] In the control assays, decreases in retinol fluorescence were associated with concomitant increases in protein fluorescence, see FIG. 3a. This effect was determined to be due to temperature effects as the dissociation constant of RBP-retinol increases (decreased affinity) with […] at 37C. […] Increases of HPR beyond equimolar amounts relative to RBP holoprotein (e.g., 2.0 μM HPR to 1.0 μM RBP) will produce a population of RBP which is largely associated with HPR.

abca4 null mutant mouse = test: Effect of HPR on serum retinol, 14 days (Example 11); type: in vivo
Protocol: Initial studies began by examining the effect of HPR on serum retinol. Animals were divided into three groups and given either DMSO, 10 mg/kg HPR, or 20 mg/kg HPR for 14 days. At the end of the study period, blood was collected from the animals, sera were prepared and an acetonitrile extract of the serum was analyzed by reverse phase LC/MS. UV-visible spectral and mass/charge analyses were performed to confirm the identity of the eluted peaks. Sample chromatograms obtained from these analyses are shown: FIG. 1a.—extract from an abca4 null mutant mouse receiving HPR vehicle, DMSO; FIG. 1b.-10 mg/kg HPR; FIG. 1c.-20 mg/kg HPR. […] For 20 mg/kg HPR, serum retinol is decreased 72%, see FIG. 7. The steady state concentrations of retinol and HPR in serum (at 20 mg/kg HPR) were determined to be 2.11 μM and 1.75 μM, respectively.

abca4 −/− mice [2] = test: HPR and retinaldehyde content after 7 days, dark- and light-adapted; type: in vivo, mouse; conditions: HPR 10 mg/kg/day
Protocol: The effect of HPR on visual chromophore biosynthesis was examined in a separate study in which a […] of HPR (10 mg/kg/day) was administered to abca4 −/− mice over a 7-day period.

[3] = target: interaction of TTR with RBP (Homo sapiens, UniProt P02753); conditions: in vitro; cited from earlier work
wild-type mice = test: Ocular retinoid content after 7 days of HPR (HPLC); type: in vivo, mouse; conditions: HPR 5-20 mg/kg/day i.p.
Protocol: (§1) In one study, wild-type mice were given varied doses of HPR (5-20 mg/kg/day, i.p. in DMSO) for 7 days. Control mice received only DMSO. Mice were maintained on a 12 h/12 h light/dark cycle throughout the treatment period. At the end of the study, the ocular retinoid content was determined by high-performance liquid chromatography (HPLC). Light-adapted, rather than dark-adapted, retinoid profiles were obtained so that a measure of retinoids could be obtained while the visual cycle was actively regenerating chromophore. […] This finding is in sharp contrast to data obtained from analysis of mice treated with 13-cis retinoic acid. […] Reduced 11cRDH activity would lead to reduced levels of 11-cis retinal and accumulation of 11-cis retinol. Free 11-cis retinol would be rapidly esterified via LRAT activity resulting in increased 11-cis retinyl esters. This effect of 13-cis retinoic acid on retinoid biosynthesis was also observed in rats in Sieving P A, et al., Proc Natl Acad Sci USA. 2001; 98(4): 1835-40.

[4] = Ocular retinoid content after 7 days of HPR (HPLC); type: in vivo, mouse; conditions: mouse, RPE (retinal pigment epithelium), intraperitoneal, HPR 5-20 mg/kg/day i.p. in DMSO, dose-dependent, read-out: accumulation of HPR within the RPE
Protocol: as §1

[5] = cited from earlier work
abca4 −/− mice [6] = test: A2E levels after withdrawal of chronic treatment; type: in vivo, mouse; conditions: chronic treatment (HPR 10 mg/kg i.p.) stopped after 28 days; measured 12, 28 and 42 days later
Protocol: Latent Effects of HPR on Arresting A2E Accumulation —One feature identified during the HPR trials was a therapeutic latency effect following withdrawal of HPR. In these studies, chronic treatment of abca4 −/− mice (10 mg HPR/kg, i.p.) was stopped after 28 days. A2E levels were then measured 12, 28 and 42 days following the final HPR dose. […] This effect was not observed in animals treated with 13-cis retinoic acid, a result that may be due to the capacity of RPE cells to adapt to, and maintain, low steady-state retinoid levels. […] These findings indicate that high steady-state levels of competitive inhibitors such as 13-cis retinoic acid must be maintained for therapeutic efficacy.

abcr null mutant mice = test: Lipofuscin autofluorescence in RPE and light microscopy of retina; type: in vivo, mouse

SMILES: CC1=C(/C=C/C(C)=C/C=C/C(C)=C/C(=O)Nc2ccc(O)cc2)C(C)(C)CCC1 [HPR, N-(4-hydroxyphenyl)retinamide]
- effect on serum retinol and RBP [1]: reductions in serum retinol and RBP; also recorded: profound reductions
- competitive binding of HPR to RBP (RBP): dose-dependent and saturable
- displacement of retinol from RBP-retinol holoprotein (RBP; physiological temperature (37C), protein (340 nm) and retinol (470 nm) fluorescence): efficiently displaces retinol
- decrease of serum all-trans retinol (abca4 null mutant mouse; 10 mg/kg HPR, 14 days, vs DMSO): 40%
- decrease of serum retinol (abca4 null mutant mouse; 20 mg/kg HPR, 14 days, vs DMSO): 72%
- steady state concentration of retinol in serum (abca4 null mutant mouse; at 20 mg/kg HPR): 2.11 µM
- effect on steady-state retinal levels or regeneration of visual chromophore (abca4 −/− mice [2]): essentially no effect
- effect on interaction of TTR with RBP [3]: interferes with the normal interaction of TTR with RBP
- differences in light-adapted retinoid levels (wild-type mice): no significant differences
- concentration at 7 days [4]: 4 to 6 µM
- observed toxicities ([5]; 4800 mg/m^2 dose, three times daily): minimal
- plasma concentration after high fat meals versus carbohydrate meals ([5]; human, in vivo): three times greater
- A2E levels after withdrawal (therapeutic latency effect) (abca4 −/− mice [6]): remained persistently low for several weeks
- lipofuscin autofluorescence in the RPE (abcr null mutant mice; HPR daily for 28 days): significantly reduces; also recorded: less than that of an age-matched wild-type animal
- retinal morphology (light microscopy) (abcr null mutant mice; HPR-treated animals): no aberrant morphology

— patent US20070015827A1, “Methods and compositions for treating ophthalmic conditions via serum retinol, serum retinol binding protein (RBP), and/or serum retinol-RBP modulation” (Sytera, Inc., priority 2005, published 2007)
